Data taken from BindingDB's records for patent US8604046 (Sanofi, 2013).

Target: Histamine H3 receptor (Macaca mulatta, UniProt G7N499)
Assay: Radioligand Binding Assay
Source text: The compounds of this invention have been demonstrated to displace [3H]- methylhistamine radioligand binding to mammalian cell membranes expressing rhesus (Macacca Mulatta) H3 receptor. Additionally, the compounds of this invention have been demonstrated by GTPγS radioligand binding assay to inhibit rhesus H3 constitutive functional activity in cell membranes.

Chain of Histamine H3 receptor (G7N499 whole entry): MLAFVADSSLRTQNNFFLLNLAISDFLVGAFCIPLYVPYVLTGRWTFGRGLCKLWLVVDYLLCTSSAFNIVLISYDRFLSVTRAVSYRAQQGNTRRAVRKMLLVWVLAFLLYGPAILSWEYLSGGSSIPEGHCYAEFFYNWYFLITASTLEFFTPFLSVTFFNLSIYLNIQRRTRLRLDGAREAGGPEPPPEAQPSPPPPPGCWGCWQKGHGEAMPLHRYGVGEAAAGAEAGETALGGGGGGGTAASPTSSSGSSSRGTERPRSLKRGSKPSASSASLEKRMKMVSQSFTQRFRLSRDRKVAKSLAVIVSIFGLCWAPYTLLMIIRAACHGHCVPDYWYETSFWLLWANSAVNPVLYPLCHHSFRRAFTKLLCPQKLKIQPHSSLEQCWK

## C[C@H]1CCCN1C1CCN(c2ccc(N3CCC4(CCN(C(=O)OC(C)(C)C)CC4)C3=O)c(F)c2)CC1 [US8604046, 79]
  Ki: 0.3 nM
